Measured values: ChEMBL document CHEMBL3124887, “Synthesis and anti-inflammatory activity of aromatic glucosinolates” (2013)

What was measured:
Format in all cases: functional
[1] = test system: THP-1; assay: Antiinflammatory activity in human THP1 cells assessed as inhibition of LPS-induced TNF-alpha release measured as TNF-alpha level at 0.1 uM after 4hrs by ELISA relative to control
[2] = test system: THP-1; assay: Antiinflammatory activity in human THP1 cells assessed as inhibition of LPS-induced TNF-alpha release measured as TNF-alpha level at 0.5 uM after 4hrs by ELISA relative to control
[3] = test system: THP-1; assay: Antiinflammatory activity in human THP1 cells assessed as inhibition of LPS-induced TNF-alpha release measured as TNF-alpha level at 5 uM after 4hrs by ELISA relative to control
[4] = test system: THP-1; assay: Antiinflammatory activity in human THP1 cells assessed as inhibition of LPS-induced TNF-alpha release measured as TNF-alpha level at 10 uM after 4hrs by ELISA relative to control
[5] = test system: THP-1; assay: Antiinflammatory activity in human THP1 cells assessed as inhibition of LPS-induced TNF-alpha release measured as TNF-alpha level at 15 uM after 4hrs by ELISA relative to control
[6] = test system: THP-1; assay: Antiinflammatory activity in human THP1 cells assessed as inhibition of LPS-induced TNF-alpha release measured as TNF-alpha level at 1 uM after 4hrs by ELISA relative to control

Row | Structure (SMILES) | Activity [1] [pg/mL] | Activity [2] [pg/mL] | Activity [3] [pg/mL] | Activity [4] [pg/mL] | Activity [5] [pg/mL] | Activity [6] [pg/mL]
1 | O=S(=O)([O-])O/N=C(\S[C@@H]1O[C@H](CO)[C@@H](O)[C@H](O)[C@H]1O)c1ccccc1.[K+] | 231.15 | 194.44 | 166.58 | 144.15 | 103.57 | –
2 | O=S(=O)([O-])O/N=C(/Cc1ccccc1)S[C@@H]1O[C@H](CO)[C@@H](O)[C@H](O)[C@H]1O.[K+] | 275.48 | – | – | 206.65 | 201.87 | 248.4
3 | O=S(=O)([O-])O/N=C(/CCc1ccccc1)S[C@@H]1O[C@H](CO)[C@@H](O)[C@H](O)[C@H]1O.[K+] | – | – | 115.25 | 96.86 | 74.76 | 138.43
4 | O=S(=O)([O-])O/N=C(/C=C/c1ccccc1)S[C@@H]1O[C@H](CO)[C@@H](O)[C@H](O)[C@H]1O.[K+] | – | – | – | 122.91 | 79.23 | 149.06
5 | COc1ccc(/C(=N/OS(=O)(=O)[O-])S[C@@H]2O[C@H](CO)[C@@H](O)[C@H](O)[C@H]2O)cc1OC.[K+] | – | 161.76 | 128.21 | 93.1 | 69.2 | 144.57
6 | O=S(=O)([O-])O/N=C(\S[C@@H]1O[C@H](CO)[C@@H](O)[C@H](O)[C@H]1O)c1cccc(Cl)c1Cl.[K+] | – | – | 162 | 157.09 | 114.17 | –
7 | O=S(=O)([O-])O/N=C(\S[C@@H]1O[C@H](CO)[C@@H](O)[C@H](O)[C@H]1O)c1ccc(Br)cc1.[K+] | 165.27 | – | 173.17 | 122.04 | 111.1 | –
8 | Oc1cc(O)c2c(c1)OC(c1ccc(O)c(O)c1)C(O)C2 (stereo unspecified) [CATECHIN] | – | 303.98 | 282.65 | – | 255.94 | –
